Experimental data from ChEMBL document CHEMBL1641539 (Bioorg Med Chem Lett, 2011).

Tests used:
[1] = biological target: Receptor tyrosine-protein kinase erbB-4 (Homo sapiens) (UniProt Q15303); assay: Inhibition of human ErbB4 at 10 uM after 60 mins by TR-FRET assay; conditions: values are per cent of control
[2] = biological target: Interleukin-1 receptor-associated kinase 1 (Homo sapiens) (UniProt P51617); assay: Inhibition of human IRAK1 at 10 uM after 60 mins by TR-FRET assay; conditions: values are per cent of control
[3] = biological target: Serine/threonine-protein kinase 10 (Homo sapiens) (UniProt O94804); assay: Inhibition of human LOK at 10 uM after 60 mins by TR-FRET assay; conditions: values are per cent of control
[4] = biological target: Serine/threonine-protein kinase 24 (Homo sapiens) (UniProt Q9Y6E0); assay: Inhibition of human MST3 at 10 uM after 60 mins by TR-FRET assay; conditions: values are per cent of control
[5] = biological target: Serine/threonine-protein kinase PLK2 (Homo sapiens) (UniProt Q9NYY3); assay: Inhibition of human Snk at 10 uM after 60 mins by TR-FRET assay; conditions: values are per cent of control
[6] = biological target: Cyclin-dependent kinase 1/cyclin B (Homo sapiens) (UniProt P06493+P14635+Q8WWL7+O95067); assay: Residual activity of human CDK1/cyclinB at 10 uM after 60 mins by TR-FRET assay
[7] = biological target: Tyrosine-protein kinase Lyn (Mus musculus) (UniProt P25911); assay: Inhibition of mouse Lyn at 10 uM after 60 mins by TR-FRET assay; values are per cent of control
[8] = biological target: Tyrosine-protein kinase Mer (Homo sapiens) (UniProt Q12866); assay: Inhibition of human Mer at 10 uM after 60 mins by TR-FRET assay; values are per cent of control
[9] = biological target: Serine/threonine-protein kinase Nek3 (Homo sapiens) (UniProt P51956); assay: Inhibition of human NEK3 at 10 uM after 60 mins by TR-FRET assay; values are per cent of control
[10] = biological target: Rho-associated protein kinase 2 (Rattus norvegicus) (UniProt Q62868); assay: Inhibition of rat ROCK-2 at 10 uM after 60 mins by TR-FRET assay; values are per cent of control
[11] = biological target: NUAK family SNF1-like kinase 1 (Homo sapiens) (UniProt O60285); assay: Inhibition of human ARK5 at 10 uM after 60 mins by TR-FRET assay; values are per cent of control
[12] = biological target: Dual specificity protein kinase CLK3 (Homo sapiens) (UniProt P49761); assay: Inhibition of human CLK3 at 10 uM after 60 mins by TR-FRET assay; values are per cent of control
[13] = biological target: Tyrosine-protein kinase FRK (Homo sapiens) (UniProt P42685); assay: Inhibition of human PTK5 at 10 uM after 60 mins by TR-FRET assay; values are per cent of control
[14] = biological target: Ephrin type-A receptor 3 (Homo sapiens) (UniProt P29320); assay: Inhibition of human EphA3 at 10 uM after 60 mins by TR-FRET assay; values are per cent of control
[15] = biological target: Ephrin type-B receptor 3 (Homo sapiens) (UniProt P54753); assay: Inhibition of human EphB3 at 10 uM after 60 mins by TR-FRET assay; values are per cent of control
[16] = biological target: Calcium/calmodulin-dependent protein kinase type IV (Homo sapiens) (UniProt Q16566); assay: Inhibition of human CaMK4 at 10 uM after 60 mins by TR-FRET assay; values are per cent of control
[17] = biological target: RAF proto-oncogene serine/threonine-protein kinase (Homo sapiens) (UniProt P04049); assay: Inhibition of human c-RAF at 10 uM after 60 mins by TR-FRET assay; values are per cent of control
[18] = biological target: Serine/threonine-protein kinase pim-2 (Homo sapiens) (UniProt Q9P1W9); assay: Inhibition of human Pim-2 at 10 uM after 60 mins by TR-FRET assay; values are per cent of control
[19] = biological target: Inhibitor of nuclear factor kappa-B kinase subunit beta (Homo sapiens) (UniProt O14920); assay: Inhibition of human IKK-beta at 10 uM after 60 mins by TR-FRET assay; values are per cent of control
[20] = biological target: T1, Aurora kinase A (Homo sapiens) (UniProt O14965); assay: Inhibition of human Aurora-A at 10 uM after 60 mins by TR-FRET assay; values are per cent of control
T1 sequence (whole entry): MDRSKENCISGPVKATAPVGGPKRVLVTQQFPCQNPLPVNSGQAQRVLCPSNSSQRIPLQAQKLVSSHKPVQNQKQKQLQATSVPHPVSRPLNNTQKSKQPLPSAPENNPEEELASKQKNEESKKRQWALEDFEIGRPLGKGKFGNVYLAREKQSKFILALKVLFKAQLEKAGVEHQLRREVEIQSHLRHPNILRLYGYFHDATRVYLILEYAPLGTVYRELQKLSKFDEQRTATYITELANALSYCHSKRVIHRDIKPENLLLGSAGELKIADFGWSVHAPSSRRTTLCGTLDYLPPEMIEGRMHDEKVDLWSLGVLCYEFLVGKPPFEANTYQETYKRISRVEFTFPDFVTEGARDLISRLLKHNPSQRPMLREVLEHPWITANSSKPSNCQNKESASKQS

[21] = biological target: Protein kinase C alpha type (Homo sapiens) (UniProt P17252); assay: Inhibition of human PKCalpha at 10 uM after 60 mins by TR-FRET assay; values are per cent of control
[22] = biological target: Casein kinase I isoform gamma-3 (Homo sapiens) (UniProt Q9Y6M4); assay: Inhibition of human CK1gamma3 at 10 uM after 60 mins by TR-FRET assay; values are per cent of control
[23] = biological target: Protein kinase C epsilon type (Homo sapiens) (UniProt Q02156); assay: Inhibition of human PKCepsilon at 10 uM after 60 mins by TR-FRET assay; values are per cent of control
[24] = biological target: CDK3/cyclin E (Homo sapiens) (UniProt P24864+O96020+Q00526); assay: Inhibition of human CDK3/cyclinE at 10 uM after 60 mins by TR-FRET assay; values are per cent of control
[25] = test system: Fibroblast growth factor receptor 2 (Homo sapiens), P21802 [N549H]; assay: Inhibition of human FGFR2 N549H mutant at 10 uM after 60 mins by TR-FRET assay; values are per cent of control

Sequence of Tyrosine-protein kinase FRK (Homo sapiens) (P42685 whole entry): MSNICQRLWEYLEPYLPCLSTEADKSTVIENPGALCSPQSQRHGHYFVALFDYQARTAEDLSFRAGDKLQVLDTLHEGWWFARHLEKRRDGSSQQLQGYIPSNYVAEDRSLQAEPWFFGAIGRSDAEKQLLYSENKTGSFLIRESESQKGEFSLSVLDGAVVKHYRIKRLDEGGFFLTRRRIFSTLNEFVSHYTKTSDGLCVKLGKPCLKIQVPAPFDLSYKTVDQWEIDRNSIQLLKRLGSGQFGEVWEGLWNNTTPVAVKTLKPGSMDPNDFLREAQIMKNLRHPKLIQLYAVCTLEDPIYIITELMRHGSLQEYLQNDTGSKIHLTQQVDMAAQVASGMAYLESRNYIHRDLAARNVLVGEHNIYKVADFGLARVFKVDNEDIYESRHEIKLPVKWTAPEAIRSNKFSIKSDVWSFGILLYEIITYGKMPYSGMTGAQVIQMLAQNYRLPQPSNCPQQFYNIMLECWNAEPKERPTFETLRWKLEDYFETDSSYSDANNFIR
Sequence of Serine/threonine-protein kinase 24 (Homo sapiens) (Q9Y6E0 whole entry, looked up): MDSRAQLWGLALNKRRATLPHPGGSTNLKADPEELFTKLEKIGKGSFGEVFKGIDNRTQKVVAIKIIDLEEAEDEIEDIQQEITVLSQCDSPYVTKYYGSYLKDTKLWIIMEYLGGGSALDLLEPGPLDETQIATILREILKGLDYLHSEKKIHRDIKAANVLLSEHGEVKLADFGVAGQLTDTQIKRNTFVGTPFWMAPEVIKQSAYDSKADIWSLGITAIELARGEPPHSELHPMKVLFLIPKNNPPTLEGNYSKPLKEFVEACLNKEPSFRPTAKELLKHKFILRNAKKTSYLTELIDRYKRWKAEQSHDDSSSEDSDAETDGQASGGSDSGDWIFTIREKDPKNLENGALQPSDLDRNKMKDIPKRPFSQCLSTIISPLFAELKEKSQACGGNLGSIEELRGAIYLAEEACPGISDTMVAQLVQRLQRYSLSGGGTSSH
Sequence of Tyrosine-protein kinase Lyn (Mus musculus) (P25911 whole entry): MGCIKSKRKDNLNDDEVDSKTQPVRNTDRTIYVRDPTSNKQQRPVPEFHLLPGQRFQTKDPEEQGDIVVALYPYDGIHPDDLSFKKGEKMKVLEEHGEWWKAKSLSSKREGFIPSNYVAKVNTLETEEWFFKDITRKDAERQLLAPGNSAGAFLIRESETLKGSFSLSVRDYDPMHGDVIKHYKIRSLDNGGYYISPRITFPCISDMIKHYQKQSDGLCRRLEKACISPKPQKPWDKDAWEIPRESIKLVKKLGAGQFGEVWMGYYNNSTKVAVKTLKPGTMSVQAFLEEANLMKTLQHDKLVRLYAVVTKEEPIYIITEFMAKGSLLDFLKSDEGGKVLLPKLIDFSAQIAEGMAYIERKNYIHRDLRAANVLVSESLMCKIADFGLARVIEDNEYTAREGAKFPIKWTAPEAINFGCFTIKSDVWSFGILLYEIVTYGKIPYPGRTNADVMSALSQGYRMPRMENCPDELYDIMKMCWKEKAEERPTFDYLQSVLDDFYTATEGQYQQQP
Sequence of CDK3/cyclin E (Homo sapiens) (O96020 whole entry, looked up): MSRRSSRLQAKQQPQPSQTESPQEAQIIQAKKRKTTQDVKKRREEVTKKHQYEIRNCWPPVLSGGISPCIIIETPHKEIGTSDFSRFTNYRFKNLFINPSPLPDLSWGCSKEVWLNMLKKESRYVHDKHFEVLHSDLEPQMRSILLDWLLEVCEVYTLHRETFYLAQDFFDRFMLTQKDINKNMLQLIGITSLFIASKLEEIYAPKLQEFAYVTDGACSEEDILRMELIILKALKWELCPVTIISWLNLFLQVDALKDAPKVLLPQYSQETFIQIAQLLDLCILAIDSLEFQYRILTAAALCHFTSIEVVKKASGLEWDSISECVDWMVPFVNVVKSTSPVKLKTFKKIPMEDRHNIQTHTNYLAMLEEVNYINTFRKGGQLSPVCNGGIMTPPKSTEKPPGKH
Sequence of CDK3/cyclin E (Homo sapiens) (P24864 whole entry, looked up): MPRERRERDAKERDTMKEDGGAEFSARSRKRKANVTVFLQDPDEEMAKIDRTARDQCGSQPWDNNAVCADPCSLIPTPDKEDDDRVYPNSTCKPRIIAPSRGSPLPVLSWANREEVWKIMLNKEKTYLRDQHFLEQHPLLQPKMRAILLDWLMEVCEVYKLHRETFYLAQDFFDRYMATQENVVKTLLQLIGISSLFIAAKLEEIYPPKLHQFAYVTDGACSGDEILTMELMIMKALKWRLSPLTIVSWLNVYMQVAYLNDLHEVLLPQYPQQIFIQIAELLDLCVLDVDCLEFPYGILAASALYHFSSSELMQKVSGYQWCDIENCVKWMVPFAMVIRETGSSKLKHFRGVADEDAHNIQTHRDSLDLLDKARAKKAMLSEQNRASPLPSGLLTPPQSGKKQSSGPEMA
Sequence of CDK3/cyclin E (Homo sapiens) (Q00526 whole entry, looked up): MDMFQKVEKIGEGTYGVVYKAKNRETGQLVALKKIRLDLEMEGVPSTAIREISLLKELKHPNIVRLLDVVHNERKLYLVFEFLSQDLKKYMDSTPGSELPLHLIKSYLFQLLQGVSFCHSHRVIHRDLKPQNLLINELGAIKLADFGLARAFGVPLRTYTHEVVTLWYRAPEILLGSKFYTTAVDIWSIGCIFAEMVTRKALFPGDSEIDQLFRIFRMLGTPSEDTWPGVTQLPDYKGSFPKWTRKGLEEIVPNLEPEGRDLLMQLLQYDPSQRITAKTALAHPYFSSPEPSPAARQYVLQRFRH
Sequence of Ephrin type-A receptor 3 (Homo sapiens) (P29320 whole entry): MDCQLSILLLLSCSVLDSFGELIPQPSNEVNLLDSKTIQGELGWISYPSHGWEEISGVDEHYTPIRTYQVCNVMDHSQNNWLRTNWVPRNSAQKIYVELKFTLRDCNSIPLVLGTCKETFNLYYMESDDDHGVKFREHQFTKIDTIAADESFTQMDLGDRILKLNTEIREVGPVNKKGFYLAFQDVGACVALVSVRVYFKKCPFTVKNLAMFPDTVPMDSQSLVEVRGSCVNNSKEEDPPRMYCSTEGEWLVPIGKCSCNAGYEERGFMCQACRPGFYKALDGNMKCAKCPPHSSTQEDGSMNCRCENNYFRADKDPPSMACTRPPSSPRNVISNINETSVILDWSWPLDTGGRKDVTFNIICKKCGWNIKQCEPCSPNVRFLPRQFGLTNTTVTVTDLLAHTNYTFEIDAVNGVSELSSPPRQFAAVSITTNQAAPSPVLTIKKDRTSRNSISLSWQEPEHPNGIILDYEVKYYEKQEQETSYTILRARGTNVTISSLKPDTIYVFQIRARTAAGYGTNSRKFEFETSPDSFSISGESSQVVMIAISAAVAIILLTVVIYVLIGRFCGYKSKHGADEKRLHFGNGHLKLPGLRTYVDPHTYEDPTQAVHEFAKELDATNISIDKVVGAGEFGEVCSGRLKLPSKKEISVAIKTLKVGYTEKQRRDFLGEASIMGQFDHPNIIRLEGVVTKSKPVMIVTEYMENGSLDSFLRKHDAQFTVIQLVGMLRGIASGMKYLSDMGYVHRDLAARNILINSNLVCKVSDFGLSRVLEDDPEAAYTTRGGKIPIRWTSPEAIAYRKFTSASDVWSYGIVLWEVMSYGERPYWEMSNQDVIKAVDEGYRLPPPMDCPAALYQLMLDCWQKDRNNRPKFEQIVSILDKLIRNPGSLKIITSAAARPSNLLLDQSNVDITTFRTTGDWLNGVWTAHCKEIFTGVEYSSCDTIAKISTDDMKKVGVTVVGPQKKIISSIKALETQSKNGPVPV
Sequence of Dual specificity protein kinase CLK3 (Homo sapiens) (P49761 whole entry, looked up): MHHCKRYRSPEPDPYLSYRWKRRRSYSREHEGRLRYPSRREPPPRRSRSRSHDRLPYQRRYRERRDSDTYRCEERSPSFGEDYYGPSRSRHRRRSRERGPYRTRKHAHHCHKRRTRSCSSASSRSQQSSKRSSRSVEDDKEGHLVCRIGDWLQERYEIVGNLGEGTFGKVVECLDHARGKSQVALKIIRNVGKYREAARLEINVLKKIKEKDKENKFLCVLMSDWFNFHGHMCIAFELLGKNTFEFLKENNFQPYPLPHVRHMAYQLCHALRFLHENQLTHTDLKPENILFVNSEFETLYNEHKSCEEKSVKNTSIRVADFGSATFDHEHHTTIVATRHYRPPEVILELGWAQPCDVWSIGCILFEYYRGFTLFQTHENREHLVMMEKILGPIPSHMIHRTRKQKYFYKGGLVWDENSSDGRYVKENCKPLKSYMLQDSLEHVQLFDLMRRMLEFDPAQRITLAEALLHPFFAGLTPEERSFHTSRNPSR

residual activity [1]: 99%
residual activity [2]: 113%
residual activity [3]: 89%
residual activity [4]: 111%
residual activity [5]: 113%
residual activity [6]: 101%
residual activity [7]: 100%
residual activity [8]: 107%
residual activity [9]: 118%
residual activity [10]: 101%
residual activity [11]: 103%
residual activity [12]: 96%
residual activity [13]: 98%
residual activity [14]: 90%
residual activity [15]: 102%
residual activity [16]: 112%
residual activity [17]: 35%
residual activity [18]: 111%
residual activity [19]: 94%
residual activity [20]: 99%
residual activity [21]: 93%
residual activity [22]: 108%
residual activity [23]: 100%
residual activity [24]: 94%
residual activity [25]: 91%
Structure (SMILES): S=c1[nH]nc(-c2ccncc2)n1-c1ccc2ccccc2c1
